Counter-ions that a name gives are not always drawn.

Data on one compound can be found in patent publication US10144709B2, “Piperidine compounds, pharmaceutical composition comprising the same and its use” (SK BIOPHARMACEUTICALS CO., LTD., priority 2008, dated 2018).

In this assay the test system is ICR CD strain male mice. The assay can be described thus: Gastric emptying enhancing activity (phenol red meal). In kind it is in vivo. The following applies: Mus musculus, ip, 0.25 h, 3.0 mg/kg i.p., gastric emptying at 15 min after test meal, increase vs vehicle. On the procedure: ICR CD strain male mice (body weight, 25˜30 g; 8 mice per one group) were fasted for 24 h but allowed free access to water until 3 hours before the test.
Compounds to be tested for promoting GI motility were injected intraperitoneally or given orally at 30 min or 60 min prior to phenol red meal administration. Fifteen (15) min after administration of a test meal (0.5% Phenol red in 1.5% methylcellulose solution), mice were sacrificed and the stomach (pylorus˜cardia) was removed and collected to vial. The stomach was homogenized with its contents in 0.1N NaOH and the mixture was centrifuged (700*g) for 20 min. 2.5 mL of the supernatant was added to 0.25 mL of trichloroacetic acid solution (20% w/v) to precipitate proteins. After centrifuging (2600*g) for 20 min, 0.5 mL of the supernatant was added to 0.25 mL of 1N NaOH. The mixture was homogenized and its absorbance (Abs) was read at 560 nm.
In each experiment, one group was sacrificed just after the administration of the test meal and was considered as a standard (0% emptying). The gastric emptying (GE) at the 15 min period was calculated according to the following formula. GE (%)=(1−Abstest/Absstandard)×100 Increase (%)=(GE %test−GE %vehicle)/GE %vehicle*100

In the case of `CC(C)n1c(=O)n(C(=O)NCC2CCN(CCC(O)c3ccccc3)CC2)c2ccccc21` (stereo not shown) [Example 136, N-[[1-(3-hydroxy-3-phenylpropyl)piperidin-4-yl]methyl]-2-oxo-3-propan-2-ylbenzimidazole-1-carboxamide; hydrochloride], the change in vivo at 3 mg/kg turned out to be 64.1%.
